# Tests used:
# [1] = dog, 6 month study, cited from earlier work
# [2] = Phase Ib study, CSF and plasma saracatinib levels (LC/MS/MS); assay type: in vivo, human; conditions: for estimated human brain concentration: using ratio of CSF:Brain in mouse; for trough CSF / free concentration of saracatinib in plasma / increase in CSF level: human; for free concentration of saracatinib in plasma: from trough CSF levels and FIG. 8 correlation
# Protocol: Each point is from a different individual. The different dose groups are illustrated with different colors.
# Each point represents trough CSF saracatinib level from a different human subject for the left three columns. The mouse trough CSF values are derived from brain levels at the 5 mg/kg/d dose that rescued memory deficits in FIGS. 3-5. Bars represent mean+sem.
# Plasma samples are analyzed using solid-phase extraction followed by HPLCMS/MS. […] Calibration, quality control (QC) or blank plasma samples (200 μL) are pipetted into a standard 96-well plate. The appropriate internal standard (20 μL) is added to all samples (except the double blank to which 20 μL of methanol is added). 2% ammonium solution (1000 μL) is added to all wells and mixed. Solid-phase extraction is performed using Oasis HLB 30 mg 1 mL 96-well plates. The samples are conditioned with 1 mL methanol then 1 mL 2% ammonium solution. A 1 mL sample is loaded, washed with 1 mL 25:75, v:v methanol:water and eluted with 0.8 mL methanol. The samples are dried under oxygen-free nitrogen at 35° C. The dry residues are reconstituted in 200 μL of mobile phase, vortex mixed and transferred to 96-well plates. The vials are loaded onto HPLC-MS/MS and injected onto the reversed phase HPLC system. Calibration samples are prepared and analyzed in duplicate at LLOQ (lower limit of quantification) and ULOQ (upper limit of quantitation) and singly at all other levels. Independently prepared QC samples covering the calibration range are analyzed in duplicate and in triplicate at the dilution QC level. Plasma concentration data are quantified using an HPLC-MS/MS method and analyzed by standard methods using WinNonLin version 4.1 (Pharsight Corporation, Mountain View, Calif.).
# Subjects were enrolled in three cohorts of 8 subjects each.
# In certain embodiments, obtaining the scans worked as a pilot to the collection of brain metabolism data for the Phase 2a trial. In addition, saracatinib levels were measured in this study using a GLP-validated LC/MS/MS assay. […] CSF levels are about a third of plasma free drug levels.
# [3] = test system: APPswe/PS1ΔE9 transgenic mice; test: Histology of AD transgenic mice (Aβ plaque, PSD-95, SV2A); assay type: in vivo, mouse; conditions: for synapse density (PSD-95, SV2A) in dentate gyrus: 5 weeks
# Text: FIGS. 10A-10C illustrate the finding that synaptic markers recover after treatment with a Fyn inhibitor. […] FIG. 10A: Representative sections from the labeled groups were stained with anti-PSD-95 antibody and the molecular layer of the dentate gyrus was imaged with a confocal microscope with a 60× objective lens. Scale bar, 3 μm. FIG. 10B: Fractional area of immunoreactive puncta for PSD-95. p<0.05, ANOVA with post-hoc pairwise Tukey comparisons. Mean±SEM, n=5-10 mice per group, two images per mouse. FIG. 10C: Fractional area of immunoreactive puncta for SV2. p<0.05, ANOVA with post-hoc pairwise Fisher's least significant difference (LSD). Mean±SEM, n=5-10 mice per group, two images per mouse.
# The animals were familiarized with two objects on the first day of testing, and then observed on the next day with one novel object and one familiar object. The time spent exploring each object was scored by an observed unaware of drug treatment (FIG. 5). WT mice spend more time with the novel object. However, vehicle-treated APPswe/PS1ΔE9 mice spent equal time with both objects, consistent with impaired memory of familiarization on the previous day. […] The tissue from these mice is analyzed histologically, e.g., for Aβ plaque and synaptic markers (which are reduced in the transgenic mice). […] Without wishing to be limited by theory, this finding is consistent with the fact that saracatinib blocks the downstream action of Aβo on neurons, but not the upstream production of Aβ.
# Upon analysis of a post-synaptic marker (PSD-95) or a presynaptic marker (SV2A) in the dentate gyrus of the hippocampus, an saracatinib-induced restoration of synapse density was observed. The twelve-month old transgenic mice have lost approximately 30-40% of synapses by the immunohistological measures.
# solid tumors = conditions: single agent, specific oncological indications; cited from earlier work
# [4] = test system: APPswe/PS1ΔE9 transgenic mice; test: Novel Object Recognition in AD transgenic mice; assay type: in vivo, mouse; conditions: 5 weeks treatment
# [5] = test system: Fyn (p-SFK) and eEF2 phosphorylation in cortical neurons; test: Aβo-induced Fyn activation and eEF2 phosphorylation in cortical neurons (immunoblot); assay type: cell-based, mouse
# Protocol: FIG. 2A: DIV21 cortical neurons from wild type or Prnp−/− mice were treated with or without Aβo for 5 min. Whole cell lysates were analyzed by anti-phospho-eEF2, anti-eEF2, or anti-PrP^C immunoblot. Aβo increased p-eEF2/eEF2 ratio to 210±20% of baseline in WT cultures (mean±sem, n=3), but there was no significant increase in Prnp−/− cultures. FIG. 2B: DIV21 cortical neurons from wild type mice were treated with the indicated human control or AD brain extracts (30 μg total protein/ml) for 5 min. Whole cell lysates were analyzed by anti-phospho-eEF2 or anti-eEF2 immunoblot. AD, but not control (Con), brain extracts increased p-eEF2/eEF2 ratio to 200±10% of untreated cultures (mean±sem, n=4). FIG. 2C: Wild type cortical neurons were treated with or without Aβo for 15 min. […] Whole cell lysates were analyzed by anti-phospho-SFK, anti-Fyn, anti-phospho-eEF2, or anti-eEF2 immunoblot. GAPDH served as a loading control. FIG. 2D: Quantification of phospho-eEF2 level normalized to eEF2 immunoreactivity from four independent experiments. Mean±sem; *, P<0.05, n.s., not significant; One-way ANOVA, with Tukey post-hoc pairwise comparisons.
# Because spine turnover is dependent on protein translation machinery, and because both Aβo and Fyn have been linked to mGluR5, a downstream effector of mGluR5-regulated protein translation, the eukaryotic elongation factor 2 (eEF2), was considered. The eEF2 pathway is regulated by phosphorylation and is dysregulated in AD. A3o treatment of cortical neurons increases eEF2 phosphorylation at 5 min (FIG. 2A). Genetic analysis confirmed that the Aβo effect on eEF2 phosphorylation depends on PrP^C (FIG. 2A).
# It was tested whether phosphorylation of eEF2 induced by Aβo depends on AZD0530-sensitive Fyn kinase activation. […] Thus, AZD0530 prevented Aβo/PrP-induced, Fyn-dependent neuronal signaling in vitro.
# [6] = Dog exposure (Cmax and AUC) with oral dosing; assay type: in vivo
# [7] = saracatinib 1 hour prior to Aβo, Aβo 15 min
smiles,measurement,setting,value
"CN1CCN(CCOc2cc(OC3CCOCC3)c3c(Nc4c(Cl)ccc5c4OCO5)ncnc3c2)CC1 [saracatinib, N-(5-chloro-benzo[d][1,3]dioxol-4-yl)-7-(2-(4-methylpiperazin-1-yl)ethoxy)-5-(tetrahydro-2H-pyran-4-yloxy)quinazolin-4-amine]",toxicity,[1]; 5 mg/kg/d,mild GI toxicity
same,NOAEL,[1],0.5 mg/kg/day
same,estimated human brain concentration,[2]; 50 mg saracatinib free base,3 to 7 nM
same,estimated human brain concentration,[2]; 100 mg saracatinib free base,7 to 27 nM
same,estimated human brain concentration,[2]; 125 mg saracatinib free base,8 to 46 nM
same,trough CSF,[2]; 50 mg saracatinib free base daily,0.9 to 2.2 nM
same,free concentration of saracatinib in plasma,[2]; 50 mg,2.6 to 6.5 nM
same,trough CSF,[2]; 100 mg saracatinib free base daily,2.1 to 8.3 nM
same,free concentration of saracatinib in plasma,[2]; 100 mg,6.2 to 24.4 nM
same,trough CSF,[2]; 125 mg saracatinib free base daily,2.5 to 14.0 nM
same,free concentration of saracatinib in plasma,[2]; 125 mg,7.4 to 41.2 nM
same,increase in CSF level,[2]; from 50 to 100 mg,three-fold
same,increase in CSF level,[2]; from 100 to 125 mg,two-fold
same,Aβ plaque content,[3]; APPswe/PS1ΔE9 mice,No significant changes
same,"synapse density (PSD-95, SV2A) in dentate gyrus",[3]; APPswe/PS1ΔE9 mice,restored to WT control levels
same,"synapse density (PSD-95, SV2A) in dentate gyrus",[3]; WT mice,no change
same,benefit in Phase II studies,solid tumors,limited benefit
same,Novel Object Recognition performance,[4],performance equal to the WT mice
same,basal p-SFK levels,"[5]; cortical neurons, saracatinib 1 hour",suppressed
same,Aβo stimulation of target kinase (p-SFK),[5]; [7],fully prevented
same,Aβo-induced increase of eEF2 phosphorylation,[5]; [7],fully blocked
same,human daily dose equivalent,[6]; dog 2 mg/kg/d,50 mg
same,human dose of equivalent exposure (Cmax and AUC),"[6]; dog 5 mg/kg, saracatinib free base in human",125 mg
same,dose dependence of exposure,"[6]; dog, multiple dosing, 0.5 to 5 mg/kg oral daily dose",linear
